# pIC50: −log10 of the molar value.
# Experiments:
# Assay in all cases: cells
# COLO-829 = type: functional, cell-based, Homo sapiens; settings: Homo sapiens, COLO-829
# Description: SANGER: Inhibition of human COLO-829 cell growth in a cell viability assay.
# COR-L88 = type: functional, cell-based, Homo sapiens; settings: Homo sapiens, COR-L88;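 also: growth inhibition of COR-L88 cells, read out with a cell viability assay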
# Description: SANGER: Inhibition of human COR-L88 cell growth in a cell viability assay.
# D-247MG = type: functional, cell-based, Homo sapiens; settings: Homo sapiens, D-247MG
# Description: SANGER: Inhibition of human D-247MG cell growth in a cell viability assay.
# DB = type: functional, cell-based, Homo sapiens; settings: Homo sapiens, DB
# Description: SANGER: Inhibition of human DB cell growth in a cell viability assay.
# DOHH-2 = type: functional, cell-based, Homo sapiens; settings: Homo sapiens, DOHH-2;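 also: growth inhibition of human DOHH-2 cells, read out with a cell viability assay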
# Description: SANGER: Inhibition of human DOHH-2 cell growth in a cell viability assay.
# EM-2 = type: functional, cell-based, Homo sapiens; settings: Homo sapiens, EM-2;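 also: growth inhibition of EM-2 cells, read out with a cell viability assay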
# Description: SANGER: Inhibition of human EM-2 cell growth in a cell viability assay.
# ES1 = type: functional, cell-based, Homo sapiens; settings: Homo sapiens, ES1;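 also: growth inhibition of ES1 cells, read out with a cell viability assay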
# Description: SANGER: Inhibition of human ES1 cell growth in a cell viability assay.
# EW-24 = type: functional, cell-based, Homo sapiens; settings: Homo sapiens, EW-24;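 also: human EW-24 cancer cell line, growth inhibition read out via a cell viability assay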
# Description: SANGER: Inhibition of human EW-24 cell growth in a cell viability assay.
# GI-ME-N = type: functional, cell-based, Homo sapiens; settings: Homo sapiens, GI-ME-N;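 also: growth inhibition of human GI-ME-N cells, read out with a cell viability assay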
# Description: SANGER: Inhibition of human GI-ME-N cell growth in a cell viability assay.
# HH = type: functional, cell-based, Homo sapiens; settings: Homo sapiens, HH
# Description: SANGER: Inhibition of human HH cell growth in a cell viability assay.
# HuTu80 = type: functional, cell-based, Homo sapiens, HUTU-80; settings: Homo sapiens, HuTu80;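 also: growth inhibition of HuTu80 human cells, determined with a cell viability readout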
# Description: SANGER: Inhibition of human HUTU-80 cell growth in a cell viability assay.
# J-RT3-T3-5 = type: functional, cell-based, Homo sapiens; settings: Homo sapiens, J-RT3-T3-5;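 also: cell viability assay measuring growth inhibition of human J-RT3-T3-5 cells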
# Description: SANGER: Inhibition of human J-RT3-T3-5 cell growth in a cell viability assay.
# JVM-2 = type: functional, cell-based, Homo sapiens; settings: Homo sapiens, JVM-2;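 also: growth inhibition of JVM-2 cells determined by a cell viability assay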
# Description: SANGER: Inhibition of human JVM-2 cell growth in a cell viability assay.
# K562 = type: functional, cell-based, Homo sapiens; settings: Homo sapiens, K562
# Description: SANGER: Inhibition of human K-562 cell growth in a cell viability assay.
# K5 = type: functional, cell-based, Homo sapiens; settings: Homo sapiens, K5
# Description: SANGER: Inhibition of human K5 cell growth in a cell viability assay.
# KALS-1 = type: functional, cell-based, Homo sapiens; settings: Homo sapiens, KALS-1;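 also: growth inhibition of KALS-1 cells, determined with a cell viability assay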
# Description: SANGER: Inhibition of human KALS-1 cell growth in a cell viability assay.
# KE-37 = type: functional, cell-based, Homo sapiens; settings: Homo sapiens, KE-37;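 also: growth inhibition of KE-37 cells, read out with a cell viability assay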
# Description: SANGER: Inhibition of human KE-37 cell growth in a cell viability assay.
# KNS-42 = type: functional, cell-based, Homo sapiens; settings: Homo sapiens, KNS-42;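 also: growth inhibition of KNS-42 cells, read out with a cell viability assay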
# Description: SANGER: Inhibition of human KNS-42 cell growth in a cell viability assay.
# KURAMOCHI = type: functional, cell-based, Homo sapiens; settings: Homo sapiens, KURAMOCHI;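 also: growth inhibition of KURAMOCHI cells, read out with a cell viability assay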
# Description: SANGER: Inhibition of human KURAMOCHI cell growth in a cell viability assay.
# LS-123 = type: functional, cell-based, Homo sapiens; settings: Homo sapiens, LS-123
# Description: SANGER: Inhibition of human LS-123 cell growth in a cell viability assay.
# ML-2 = type: functional, cell-based, Homo sapiens; settings: Homo sapiens, ML-2;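 also: growth inhibition of ML-2 cells, measured with a cell viability readout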
# Description: SANGER: Inhibition of human ML-2 cell growth in a cell viability assay.
# MV4-11 = type: functional, cell-based, Homo sapiens, MV-4-11; settings: Homo sapiens, MV4-11;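 also: cell viability readout measuring growth inhibition of human MV-4-11 cells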
# Description: SANGER: Inhibition of human MV-4-11 cell growth in a cell viability assay.
# NB17 = type: functional, cell-based, Homo sapiens; settings: Homo sapiens, NB17;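 also: growth inhibition of NB17 cells, read out with a cell viability assay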
# Description: SANGER: Inhibition of human NB17 cell growth in a cell viability assay.
# NB5 = type: functional, cell-based, Homo sapiens; settings: Homo sapiens, NB5;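 also: growth inhibition of NB5 cells, read out as cell viability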
# Description: SANGER: Inhibition of human NB5 cell growth in a cell viability assay.
# NCI-H1355 = type: functional, cell-based, Homo sapiens; settings: Homo sapiens, NCI-H1355;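 also: growth inhibition of human NCI-H1355 cells, read out by a cell viability assay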
# Description: SANGER: Inhibition of human NCI-H1355 cell growth in a cell viability assay.
# NCI-H1395 = type: functional, cell-based, Homo sapiens; settings: Homo sapiens, NCI-H1395;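 also: cell viability assay read-out quantifying reduced proliferation of human NCI-H1395 cells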
# Description: SANGER: Inhibition of human NCI-H1395 cell growth in a cell viability assay.
# NCI-H23 = type: functional, cell-based, Homo sapiens; settings: Homo sapiens, NCI-H23;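 also: cell viability assay measuring growth inhibition of NCI-H23 cells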
# Description: SANGER: Inhibition of human NCI-H23 cell growth in a cell viability assay.
# NOMO-1 = type: functional, cell-based, Homo sapiens; settings: Homo sapiens, NOMO-1;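 also: growth inhibition of human NOMO-1 cells measured by a cell viability assay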
# Description: SANGER: Inhibition of human NOMO-1 cell growth in a cell viability assay.
# NTERA-2-cl-D1 = type: functional, cell-based, Homo sapiens; settings: Homo sapiens, NTERA-2-cl-D1;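 also: inhibition of cell growth, measured with a cell viability assay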
# Description: SANGER: Inhibition of human NTERA-S-cl-D1 cell growth in a cell viability assay.
# OCUB-M = type: functional, cell-based, Homo sapiens; settings: Homo sapiens, OCUB-M;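 also: growth inhibition of the cancer cell line, read out through a cell viability assay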
# Description: SANGER: Inhibition of human OCUB-M cell growth in a cell viability assay.
# ONS-76 = type: functional, cell-based, Homo sapiens; settings: Homo sapiens, ONS-76;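 also: growth inhibition of human ONS-76 cells, read out with a cell viability assay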
# Description: SANGER: Inhibition of human ONS-76 cell growth in a cell viability assay.
# RH-1 = type: functional, cell-based, Homo sapiens; settings: Homo sapiens, RH-1;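 also: growth inhibition of human RH-1 cells, read out with a cell viability assay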
# Description: SANGER: Inhibition of human RH-1 cell growth in a cell viability assay.
# RPMI-8226 = type: functional, cell-based, Homo sapiens; settings: Homo sapiens, RPMI-8226
# Description: SANGER: Inhibition of human RPMI-8226 cell growth in a cell viability assay.
# RPMI-8866 = type: functional, cell-based, Homo sapiens; settings: Homo sapiens, RPMI-8866
# Description: SANGER: Inhibition of human RPMI-8866 cell growth in a cell viability assay.
# SK-MEL-1 = type: functional, cell-based, Homo sapiens; settings: Homo sapiens, SK-MEL-1;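 also: growth inhibition of human SK-MEL-1 cells, read out by a cell viability assay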
# Description: SANGER: Inhibition of human SK-MEL-1 cell growth in a cell viability assay.
# SK-UT-1 = type: functional, cell-based, Homo sapiens; settings: Homo sapiens, SK-UT-1;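 also: growth inhibition of SK-UT-1 cells, measured by a cell viability assay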
# Description: SANGER: Inhibition of human SK-UT-1 cell growth in a cell viability assay.
# SW684 = type: functional, cell-based, Homo sapiens; settings: Homo sapiens, SW684;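 also: growth inhibition of human SW684 cells, measured by a cell viability assay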
# Description: SANGER: Inhibition of human SW684 cell growth in a cell viability assay.
# SW 954 = type: functional, cell-based, Homo sapiens; settings: Homo sapiens, SW 954;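 also: growth inhibition of SW954 human cancer cells, read out as cell viability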
# Description: SANGER: Inhibition of human SW954 cell growth in a cell viability assay.
# A101D = type: functional, cell-based, Homo sapiens; settings: Homo sapiens, A101D;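 also: growth inhibition of the cell line, measured with a viability assay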
# Description: SANGER: Inhibition of human A101D cell growth in a cell viability assay.
# AM-38 = type: functional, cell-based, Homo sapiens; settings: Homo sapiens, AM-38;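 also: growth inhibition of AM-38 cells of human origin, read out by a cell viability assay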
# Description: SANGER: Inhibition of human AM-38 cell growth in a cell viability assay.
# BB49-HNC = type: functional, cell-based, Homo sapiens; settings: Homo sapiens, BB49-HNC;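 also: cell viability assay read-out, reported as inhibition of BB49-HNC cell growth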
# Description: SANGER: Inhibition of human BB49-HNC cell growth in a cell viability assay.
# C2BBe1 = type: functional, cell-based, Homo sapiens; settings: Homo sapiens, C2BBe1;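 also: growth inhibition of C2BBe1 cells, read out through a viability assay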
# Description: SANGER: Inhibition of human C2BBe1 cell growth in a cell viability assay.
# TE-10 = type: functional, cell-based, Homo sapiens; settings: Homo sapiens, TE-10;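 also: growth inhibition of TE-10 cells, measured by a cell viability assay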
# Description: SANGER: Inhibition of human TE-10 cell growth in a cell viability assay.
# TE-12 = type: functional, cell-based, Homo sapiens; settings: Homo sapiens, TE-12;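 also: growth inhibition of TE-12 cells, read out by a cell viability assay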
# Description: SANGER: Inhibition of human TE-12 cell growth in a cell viability assay.
# TE-9 = type: functional, cell-based, Homo sapiens; settings: Homo sapiens, TE-9;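 also: cell growth inhibition, measured with a cell viability readout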
# Description: SANGER: Inhibition of human TE-9 cell growth in a cell viability assay.
# CGTH-W-1 = type: functional, cell-based, Homo sapiens; settings: Homo sapiens, CGTH-W-1;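 also: growth inhibition of human CGTH-W-1 cells measured by cell viability assay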
# Description: SANGER: Inhibition of human CGTH-W-1 cell growth in a cell viability assay.
# COLO-668 = type: functional, cell-based, Homo sapiens; settings: Homo sapiens, COLO-668
# Description: SANGER: Inhibition of human COLO-668 cell growth in a cell viability assay.
# COLO-684 = type: functional, cell-based, Homo sapiens; settings: Homo sapiens, COLO-684
# Description: SANGER: Inhibition of human COLO-684 cell growth in a cell viability assay.
smiles,measurement,setting,value
N[C@@H](CSC(c1ccccc1)(c1ccccc1)c1ccccc1)C(=O)O [S-TRITYL-L-CYSTEINE],pIC50,COLO-829,< 5.29
same,pIC50,COR-L88,< 5.29
same,pIC50,D-247MG,< 5.29
same,pIC50,DB,< 5.29
same,pIC50,DOHH-2,6.06
same,pIC50,EM-2,< 5.29
same,pIC50,ES1,5.79
same,pIC50,EW-24,< 5.29
same,pIC50,GI-ME-N,5.64
same,pIC50,HH,5.45
same,pIC50,HuTu80,6.26
same,pIC50,J-RT3-T3-5,6.01
same,pIC50,JVM-2,< 5.29
same,pIC50,K562,5.81
same,pIC50,K5,5.98
same,pIC50,KALS-1,5.88
same,pIC50,KE-37,6.37
same,pIC50,KNS-42,5.59
same,pIC50,KURAMOCHI,< 5.29
same,pIC50,LS-123,< 5.29
same,pIC50,ML-2,5.68
same,pIC50,MV4-11,6.42
same,pIC50,NB17,5.51
same,pIC50,NB5,< 5.29
same,pIC50,NCI-H1355,6.03
same,pIC50,NCI-H1395,< 5.29
same,pIC50,NCI-H23,< 5.29
same,pIC50,NOMO-1,< 5.29
same,pIC50,NTERA-2-cl-D1,< 5.29
same,pIC50,OCUB-M,6.09
same,pIC50,ONS-76,< 5.29
same,pIC50,RH-1,< 5.29
same,pIC50,RPMI-8226,5.89
same,pIC50,RPMI-8866,< 5.29
same,pIC50,SK-MEL-1,< 5.29
same,pIC50,SK-UT-1,6.20
same,pIC50,SW684,< 5.29
same,pIC50,SW 954,5.72
same,pIC50,A101D,5.76
same,pIC50,AM-38,< 5.29
same,pIC50,BB49-HNC,< 5.29
same,pIC50,C2BBe1,< 5.29
same,pIC50,TE-10,6.14
same,pIC50,TE-12,< 5.29
same,pIC50,TE-9,6.04
same,pIC50,CGTH-W-1,< 5.29
same,pIC50,COLO-668,< 5.29
same,pIC50,COLO-684,5.68
Cc1ccc(-c2c(C(=O)CCl)n(CCCO)c3ncnc(N)c23)cc1,pIC50,COLO-829,< 5.40
same,pIC50,COR-L88,< 5.40
same,pIC50,D-247MG,< 5.40
same,pIC50,DB,< 5.40
same,pIC50,DOHH-2,5.57
same,pIC50,EM-2,< 5.40
same,pIC50,ES1,< 5.40
same,pIC50,EW-24,< 5.40
same,pIC50,GI-ME-N,5.60
same,pIC50,HH,< 5.40
same,pIC50,HuTu80,< 5.40
same,pIC50,J-RT3-T3-5,< 5.40
same,pIC50,JVM-2,< 5.40
same,pIC50,K562,< 5.40
same,pIC50,K5,< 5.40
same,pIC50,KALS-1,< 5.40
same,pIC50,KE-37,< 5.40
same,pIC50,KNS-42,< 5.40
same,pIC50,KURAMOCHI,< 5.40
same,pIC50,LS-123,< 5.40
same,pIC50,ML-2,< 5.40
same,pIC50,MV4-11,< 5.40
same,pIC50,NB17,5.95
same,pIC50,NB5,< 5.40
same,pIC50,NCI-H1355,< 5.40
same,pIC50,NCI-H1395,< 5.40
same,pIC50,NCI-H23,< 5.40
same,pIC50,NOMO-1,< 5.40
same,pIC50,NTERA-2-cl-D1,< 5.40
same,pIC50,OCUB-M,< 5.40
same,pIC50,ONS-76,< 5.40
same,pIC50,RH-1,< 5.40
same,pIC50,RPMI-8226,< 5.40
same,pIC50,RPMI-8866,< 5.40
same,pIC50,SK-MEL-1,< 5.40
same,pIC50,SK-UT-1,< 5.40
same,pIC50,SW684,< 5.40
same,pIC50,SW 954,< 5.40
same,pIC50,A101D,5.42
same,pIC50,AM-38,< 5.40
same,pIC50,BB49-HNC,< 5.40
same,pIC50,C2BBe1,5.56
same,pIC50,TE-10,< 5.40
same,pIC50,TE-12,< 5.40
same,pIC50,TE-9,< 5.40
same,pIC50,CGTH-W-1,< 5.40
same,pIC50,COLO-668,< 5.40
same,pIC50,COLO-684,< 5.40
COc1cc(N2CCN(C)CC2)ccc1Nc1ncc2c(n1)N(C)c1ccccc1C(=O)N2C,pIC50,COLO-829,< 5.10
same,pIC50,COR-L88,< 5.10
same,pIC50,D-247MG,5.80
same,pIC50,DB,< 5.10
same,pIC50,DOHH-2,5.59
same,pIC50,EM-2,< 5.10
same,pIC50,ES1,< 5.10
same,pIC50,EW-24,< 5.10
same,pIC50,GI-ME-N,6.05
same,pIC50,HH,5.34
same,pIC50,HuTu80,< 5.10
same,pIC50,J-RT3-T3-5,< 5.10
same,pIC50,JVM-2,< 5.10
same,pIC50,K562,< 5.10
same,pIC50,K5,< 5.10
same,pIC50,KALS-1,5.11
same,pIC50,KE-37,< 5.10
same,pIC50,KNS-42,< 5.10
same,pIC50,KURAMOCHI,< 5.10
same,pIC50,LS-123,< 5.10
same,pIC50,ML-2,5.13
same,pIC50,MV4-11,5.79
same,pIC50,NB17,< 5.10
same,pIC50,NB5,< 5.10
same,pIC50,NCI-H1355,< 5.10
same,pIC50,NCI-H1395,< 5.10
same,pIC50,NCI-H23,< 5.10
same,pIC50,NOMO-1,< 5.10
same,pIC50,NTERA-2-cl-D1,5.34
same,pIC50,OCUB-M,< 5.10
same,pIC50,ONS-76,< 5.10
same,pIC50,RH-1,< 5.10
same,pIC50,RPMI-8226,< 5.10
same,pIC50,RPMI-8866,< 5.10
same,pIC50,SK-MEL-1,< 5.10
same,pIC50,SK-UT-1,< 5.10
same,pIC50,SW684,< 5.10
same,pIC50,SW 954,5.31
same,pIC50,A101D,5.12
same,pIC50,AM-38,< 5.10
same,pIC50,BB49-HNC,< 5.10
same,pIC50,C2BBe1,< 5.10
same,pIC50,TE-10,5.16
same,pIC50,TE-12,5.26
same,pIC50,TE-9,< 5.10
same,pIC50,CGTH-W-1,< 5.10
same,pIC50,COLO-668,< 5.10
same,pIC50,COLO-684,< 5.10

# — ChEMBL document CHEMBL1201861, “Genomics of Drug Sensitity in Cancer screening data, Wellcome Trust Sanger Institute”
